Test [1] has as its target T1, Mitogen-activated protein kinase 1 (Homo sapiens, UniProt P28482). Briefly: Inhibition of non-activated Erk2 (unknown origin) using activating Mek1 and peptide substrate by coupled Erk2 assay.
For test [2], the target named is T1, Mitogen-activated protein kinase 1. The test can be described thus: Inhibition of activated Erk2 (unknown origin) by biochemical assay.
The target is the same in test [3]. Briefly: Binding affinity to activated Erk2 (unknown origin) by TdF assay.
For test [4] the target is unchanged. Briefly: ATP competitive inhibition of activated Erk2 (unknown origin) by biochemical assay.
Test [5] has the same target. Briefly: Binding affinity to non-phosphorylated Erk2 (unknown origin) by TdF assay.

Molecules are shown by their SMILES.

By IC50 is commonly meant the midpoint of a concentration-inhibition curve. The term Kd denotes a measure of binding affinity in units of concentration. A lower Kd goes with tighter binding.

T1 sequence (P28482 whole entry): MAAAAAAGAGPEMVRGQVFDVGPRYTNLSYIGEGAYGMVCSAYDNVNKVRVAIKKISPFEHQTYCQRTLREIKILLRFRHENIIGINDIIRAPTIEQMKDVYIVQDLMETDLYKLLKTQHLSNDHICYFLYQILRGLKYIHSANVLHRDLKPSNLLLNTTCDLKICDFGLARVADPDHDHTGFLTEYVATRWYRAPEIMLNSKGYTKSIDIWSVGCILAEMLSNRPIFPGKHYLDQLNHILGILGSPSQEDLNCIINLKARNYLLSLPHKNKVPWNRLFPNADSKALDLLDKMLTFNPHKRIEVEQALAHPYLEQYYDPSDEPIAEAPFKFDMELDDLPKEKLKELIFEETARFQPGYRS

As to `O=C(Nc1ccc(O)c(Cl)c1)[C@@H]1CCN(CC(=O)N2CCN(c3ccc(-c4ncccn4)cc3)CC2)C1`, the IC50 in test [1] is 20 nM; in test [2] (read-out: IC50) it was 410 nM.

For the compound `O=C(Nc1ccc(O)c(Cl)c1)[C@@H]1CCN(CC(=O)N2CCN(c3ccc(-c4ncc(F)cn4)cc3)CC2)C1`, the IC50 in test [1] came to 36 nM; in test [2] (read-out: IC50), 1760 nM.

With `O=C(Nc1ccc(O)c(Cl)c1)[C@@H]1CCN(CC(=O)N2CCN(c3ccc(-c4ccccc4F)cc3)CC2)C1`, the IC50 in test [1] is 1200 nM; in test [2], “Not Active”.

For `O=C(Nc1ccc(O)c(C(F)(F)F)c1)[C@@H]1CCN(CC(=O)N2CCN(c3ccc(-c4ncccn4)cc3)CC2)C1`, the IC50 in test [1] was 5 nM; in test [2] (read-out: IC50), 100 nM.

Take `O=C(Nc1ccc(O)c(Cl)c1)[C@@H]1CCN(CC(=O)N2CCN(c3ccc(-c4cncnc4)cc3)CC2)C1`: the IC50 is 73 nM in test [1] and 1800 nM in test [2] (read-out: IC50).

In the case of `O=C(Nc1ccc(O)c(Cl)c1)[C@@H]1CCN(CC(=O)N2CCN(c3ccc(-c4cccc(F)c4)cc3)CC2)C1`, the IC50 in test [1] was 2200 nM; in test [2], “Not Active”.

With `O=C(Nc1ccc(O)c(F)c1)[C@@H]1CCN(CC(=O)N2CCN(c3ccc(-c4ncccn4)cc3)CC2)C1`, the IC50 stood at 71 nM in test [1] and 2670 nM in test [2] (read-out: IC50).

As for `CCc1cnc(-c2ccc(N3CCN(C(=O)CN4CC[C@@H](C(=O)Nc5ccc(O)c(Cl)c5)C4)CC3)cc2)nc1`, the results for the IC50 in test [1] and in test [2] (read-out: IC50) were 5 nM and 100 nM, respectively.

For the compound `O=C(Nc1ccc(O)c(Cl)c1)[C@@H]1CCN(CC(=O)N2CCN(c3ccc(-c4ccc(F)cc4)cc3)CC2)C1`, the IC50 in test [1] was 19000 nM; in test [2] (read-out: IC50), 100000 nM.

Take `O=C(Nc1ccc(O)c(Cl)c1)[C@@H]1CCN(CC(=O)N2CCN(c3ccc(-c4cnco4)cc3)CC2)C1`: the IC50 in test [1] turned out to be 1000 nM; in test [2] (read-out: IC50), 12000 nM.

As for `O=C(Nc1ccc(O)c(C2CC2)c1)[C@@H]1CCN(CC(=O)N2CCN(c3ccc(-c4ncccn4)cc3)CC2)C1`, the IC50 in test [1] is 36 nM; in test [2] (read-out: IC50), 1760 nM.

With `COc1ncc(-c2ccc(N3CCN(C(=O)CN4CC[C@@H](C(=O)Nc5ccc(O)c(Cl)c5)C4)CC3)cc2)cn1`, the half-inhibitory concentration (IC50) in test [1] was found to be 71 nM; in test [2] (read-out: IC50) it was 2670 nM.

As for `CC(=O)c1ccc(N2CCN(C(=O)CN3CC[C@@H](C(=O)Nc4ccc(O)cc4)C3)CC2)cc1`, the IC50 in test [2] (read-out: IC50) came out at 6000 nM.

With `O=C(Nc1ccc(O)c(Cl)c1)[C@@H]1CCN(CC(=O)N2CCN(c3ccc(-c4cccs4)cc3)CC2)C1`, the IC50 in test [1] was determined as 2500 nM; in test [2] (read-out: IC50) it was 20000 nM.

For the compound `CC(=O)c1ccc(N2CCN(C(=O)CN3CCC(C(=O)Nc4ccc(O)cc4)C3)CC2)cc1` (stereo not drawn), the Kd in test [3] stood at 1900 nM; in test [5], 1060 nM. In test [4], this compound showed an IC50 of 15200 nM.

With `CC(C)c1cc(NC(=O)[C@@H]2CCN(CC(=O)N3CCN(c4ccc(-c5ncccn5)cc4)CC3)C2)ccc1O`, the results for the IC50 in test [1] and in test [2] (read-out: IC50) were 73 nM and 1800 nM, respectively.

Turning to `O=C(Nc1ccc(O)c(Cl)c1)[C@@H]1CCN(CC(=O)N2CCN(c3ccc(-c4cnccn4)cc3)CC2)C1`, the figures for the IC50 in test [1] and in test [2] (read-out: IC50) were 14 nM and 130 nM, respectively.

With `COc1ccc(-c2ccc(N3CCN(C(=O)CN4CC[C@@H](C(=O)Nc5ccc(O)c(Cl)c5)C4)CC3)cc2)cc1`, the figures for the IC50 in test [1] and in test [2] (read-out: IC50) were 2300 nM and 50000 nM, respectively.

As to `O=C(Nc1ccc(O)c(Cl)c1)[C@@H]1CCN(CC(=O)N2CCN(c3ccc(-c4nccs4)cc3)CC2)C1`, the IC50 was 300 nM in test [1] and 9340 nM in test [2] (read-out: IC50).

For the origin of these results see ChEMBL document CHEMBL3396989, “Discovery of hydroxyaniline amides as selective Extracellular Regulated Kinase (Erk) inhibitors” (Bioorg Med Chem Lett, 2015).
